Measurements reported in patent publication US20230085307A1, “PYRIDAZINONE COMPOUND AND HERBICIDE” (NISSAN CHEMICAL CORPORATION, priority 2019, published 2023).

Legend:
[1] = test system: persian speedwell; assay: Test Example 4: herbicidal effect by soil treatment (Table 19, symbol R); type: in vivo, Persian speedwell (Veronica persica); settings: amount of applied herbicide 320 g/ha
Outline: (§1)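 In this soil treatment, the formulated compound reached the seeds only through the soil: seeds were buried about 1.5 cm deep in sterilized diluvial soil, then the diluted emulsion was sprayed over the surface. After three weeks at 25° C. to 30° C. in a greenhouse, effects were graded on criteria from an earlier test.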

[2] = test system: Japanese bulrush; assay: Test Example 1: herbicidal activity, application before weed generation under submerged conditions (Table 16, symbol B); type: in vivo, Japanese bulrush (Schoenoplectus juncoides); settings: 320 g/ha applied herbicide
Outline: (§2)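 Submerged Wagner pots (alluvial soil, 4 cm water) sown with weed seeds and planted with 2.5-leaf rice seedlings; emulsifiable concentrate diluted in water applied to water surface on sowing day. Held in greenhouse at 25-30 °C; injury scored 0-5 by herbicidal rate after three weeks.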

[3] = test system: blackgrass; assay: Test Example 4: herbicidal effect by soil treatment (Table 19, symbol J); type: in vivo, blackgrass (Alopecurus myosuroides); settings: amount of applied herbicide 320 g/ha
Outline: as §1

[4] = test system: redroot pigweed; assay: Test Example 5: herbicidal effect by foliage application, plastic box (Table 20, symbol N); type: in vivo, redroot pigweed (Amaranthus retroflexus); settings: foliage application, 320 g/ha, three weeks after application
Outline: (§3)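 Plants were sown into sterilized diluvial soil under about 1.5 cm cover and kept in a greenhouse at 25° C. to 30° C. Fourteen days on, foliage received an even spray of the diluted emulsion. Herbicidal or crop effect was judged three weeks afterwards.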

[5] = test system: barnyard grass; assay: Test Example 3: herbicidal effect by foliage application, Wagner pot (Table 18, symbol H); type: in vivo, barnyard grass (Echinochloa crus-galli); settings: 320 g/ha
Outline: (§4)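 Plants were sown in alluvial soil held under 0.1–0.5 cm standing water and grown 14 days in a greenhouse at 25–30 °C. An emulsifiable formulation, water-diluted to the set dose, was then sprayed onto the foliage, and effects were scored three weeks later using previously defined criteria.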

[6] = test system: Italian ryegrass; assay: Test Example 5: herbicidal effect by foliage application, plastic box (Table 20, symbol K); type: in vivo, Italian ryegrass (Lolium multiflorum); settings: foliage application, 320 g/ha, three weeks after application
Outline: as §3

[7] = test system: false cleavers; assay: Test Example 4: herbicidal effect by soil treatment (Table 19, symbol Q); type: in vivo, false cleavers (Galium spurium); settings: amount of applied herbicide 320 g/ha
Outline: as §1

[8] = test system: velvetleaf; assay: Test Example 4: herbicidal effect by soil treatment (Table 19, symbol M); type: in vivo, velvetleaf (Abutilon theophrasti); settings: amount of applied herbicide 320 g/ha
Outline: as §1

[9] = test system: barnyard grass; assay: Test Example 4: herbicidal effect by soil treatment (Table 19, symbol H); type: in vivo, barnyard grass (Echinochloa crus-galli); settings: amount of applied herbicide 320 g/ha
Outline: as §1

[10] = test system: Italian ryegrass; assay: Test Example 4: herbicidal effect by soil treatment (Table 19, symbol K); type: in vivo, Italian ryegrass (Lolium multiflorum); settings: amount of applied herbicide 320 g/ha
Outline: as §1

[11] = test system: wild oat; assay: Test Example 4: herbicidal effect by soil treatment (Table 19, symbol I); type: in vivo, wild oat (Avena fatua); settings: amount of applied herbicide 320 g/ha
Outline: as §1

[12] = test system: windgrass; assay: Test Example 4: herbicidal effect by soil treatment (Table 19, symbol L); type: in vivo, windgrass (Apera spica-venti); settings: amount of applied herbicide 320 g/ha
Outline: as §1

[13] = test system: chickweed; assay: Test Example 5: herbicidal effect by foliage application, plastic box (Table 20, symbol P); type: in vivo, common chickweed (Stellaria media); settings: foliage application, 320 g/ha, three weeks after application
Outline: as §3

[14] = test system: barnyard grass; assay: Test Example 5: herbicidal effect by foliage application, plastic box (Table 20, symbol H); type: in vivo, barnyard grass (Echinochloa crus-galli); settings: foliage application, 320 g/ha, three weeks after application
Outline: as §3

[15] = test system: Chinese sprangletop; assay: Test Example 3: herbicidal effect by foliage application, Wagner pot (Table 18, symbol D); type: in vivo, chinese sprangletop (Leptochloa chinensis); settings: 320 g/ha
Outline: as §4

[16] = test system: redroot pigweed; assay: Test Example 4: herbicidal effect by soil treatment (Table 19, symbol N); type: in vivo, redroot pigweed (Amaranthus retroflexus); settings: amount of applied herbicide 320 g/ha
Outline: as §1

[17] = test system: green foxtail; assay: Test Example 4: herbicidal effect by soil treatment (Table 19, symbol G); type: in vivo, green foxtail (Setaria viridis); settings: amount of applied herbicide 320 g/ha
Outline: as §1

[18] = test system: southern crabgrass; assay: Test Example 5: herbicidal effect by foliage application, plastic box (Table 20, symbol F); type: in vivo, southern crabgrass (Digitaria ciliaris); settings: foliage application, 320 g/ha, three weeks after application
Outline: as §3

[19] = test system: oval-leafed pondweed; assay: Test Example 1: herbicidal activity, application before weed generation under submerged conditions (Table 16, symbol C); type: in vivo, oval-leafed pondweed (Monochoria vaginalis); settings: 320 g/ha applied herbicide
Outline: as §2

[20] = test system: false cleavers; assay: Test Example 5: herbicidal effect by foliage application, plastic box (Table 20, symbol Q); type: in vivo, false cleavers (Galium spurium); settings: foliage application, 320 g/ha, three weeks after application
Outline: as §3

[21] = test system: rice flat sedge; assay: Test Example 3: herbicidal effect by foliage application, Wagner pot (Table 18, symbol E); type: in vivo, rice flat sedge (Cyperus iria); settings: 320 g/ha
Outline: as §4

[22] = test system: wild oat; assay: Test Example 5: herbicidal effect by foliage application, plastic box (Table 20, symbol I); type: in vivo, wild oat (Avena fatua); settings: foliage application, 320 g/ha, three weeks after application
Outline: as §3

[23] = test system: late watergrass; assay: Test Example 1: herbicidal activity, application before weed generation under submerged conditions (Table 16, symbol A); type: in vivo, late watergrass (Echinochloa oryzicola); settings: 320 g/ha applied herbicide
Outline: as §2

[24] = test system: lambsquarters; assay: Test Example 4: herbicidal effect by soil treatment (Table 19, symbol O); type: in vivo, lambsquarters (Chenopodium album); settings: amount of applied herbicide 320 g/ha
Outline: as §1

[25] = test system: chickweed; assay: Test Example 4: herbicidal effect by soil treatment (Table 19, symbol P); type: in vivo, common chickweed (Stellaria media); settings: amount of applied herbicide 320 g/ha
Outline: as §1

[26] = test system: blackgrass; assay: Test Example 5: herbicidal effect by foliage application, plastic box (Table 20, symbol J); type: in vivo, blackgrass (Alopecurus myosuroides); settings: foliage application, 320 g/ha, three weeks after application
Outline: as §3

[27] = test system: velvetleaf; assay: Test Example 5: herbicidal effect by foliage application, plastic box (Table 20, symbol M); type: in vivo, velvetleaf (Abutilon theophrasti); settings: foliage application, 320 g/ha, three weeks after application
Outline: as §3

[28] = test system: green foxtail; assay: Test Example 5: herbicidal effect by foliage application, plastic box (Table 20, symbol G); type: in vivo, green foxtail (Setaria viridis); settings: foliage application, 320 g/ha, three weeks after application
Outline: as §3

[29] = test system: southern crabgrass; assay: Test Example 4: herbicidal effect by soil treatment (Table 19, symbol F); type: in vivo, southern crabgrass (Digitaria ciliaris); settings: amount of applied herbicide 320 g/ha
Outline: as §1

[30] = test system: persian speedwell; assay: Test Example 5: herbicidal effect by foliage application, plastic box (Table 20, symbol R); type: in vivo, Persian speedwell (Veronica persica); settings: foliage application, 320 g/ha, three weeks after application
Outline: as §3

[31] = test system: lambsquarters; assay: Test Example 5: herbicidal effect by foliage application, plastic box (Table 20, symbol O); type: in vivo, lambsquarters (Chenopodium album); settings: foliage application, 320 g/ha, three weeks after application
Outline: as §3

[32] = test system: windgrass; assay: Test Example 5: herbicidal effect by foliage application, plastic box (Table 20, symbol L); type: in vivo, windgrass (Apera spica-venti); settings: foliage application, 320 g/ha, three weeks after application
Outline: as §3

Compound: CCCC(=O)Oc1c(C)nn(C)c(=O)c1-c1c(-c2ccc(F)cc2OCC)sc2ccccc12 [1-062]
- herbicidal effect rating, R: persian speedwell [1]: 4 (Herbicidal rate of 70% or more and less than 90%)
- Herbicidal effect on B: Japanese bulrush (grade 0-5) [2]: 2 (Herbicidal rate of 20% or more and less than 40%)
- herbicidal effect rating, J: blackgrass [3]: 5 (Herbicidal rate of 90% or more (almost completely withered))
- herbicidal effect grade, N: redroot pigweed [4]: 5 (Herbicidal rate of 90% or more (almost completely withered))
- herbicidal effect on H (barnyard grass), rating 0-5 [5]: 5 (Herbicidal rate of 90% or more (almost completely withered))
- herbicidal effect grade, K: Italian ryegrass [6]: 3 (Herbicidal rate of 40% or more and less than 70%)
- herbicidal effect rating, Q: false cleavers [7]: 5 (Herbicidal rate of 90% or more (almost completely withered))
- herbicidal effect rating, M: velvetleaf [8]: 3 (Herbicidal rate of 40% or more and less than 70%)
- herbicidal effect rating, H: barnyard grass [9]: 4 (Herbicidal rate of 70% or more and less than 90%)
- herbicidal effect rating, K: Italian ryegrass [10]: 4 (Herbicidal rate of 70% or more and less than 90%)
- herbicidal effect rating, I: wild oat [11]: 1 (Herbicidal rate of 5% or more and less than 20%)
- herbicidal effect rating, L: windgrass [12]: 3 (Herbicidal rate of 40% or more and less than 70%)
- herbicidal effect grade, P: chickweed [13]: 5 (Herbicidal rate of 90% or more (almost completely withered))
- herbicidal effect grade, H: barnyard grass [14]: 4 (Herbicidal rate of 70% or more and less than 90%)
- herbicidal effect on D (Chinese sprangletop), rating 0-5 [15]: 3 (Herbicidal rate of 40% or more and less than 70%)
- herbicidal effect rating, N: redroot pigweed [16]: 5 (Herbicidal rate of 90% or more (almost completely withered))
- herbicidal effect rating, G: green foxtail [17]: 4 (Herbicidal rate of 70% or more and less than 90%)
- herbicidal effect grade, F: southern crabgrass [18]: 5 (Herbicidal rate of 90% or more (almost completely withered))
- Herbicidal effect on C: oval-leafed pondweed (grade 0-5) [19]: 0 (Herbicidal rate of 5% or less (almost no effect))
- herbicidal effect grade, Q: false cleavers [20]: 5 (Herbicidal rate of 90% or more (almost completely withered))
- herbicidal effect on E (rice flat sedge), rating 0-5 [21]: 5 (Herbicidal rate of 90% or more (almost completely withered))
- herbicidal effect grade, I: wild oat [22]: 3 (Herbicidal rate of 40% or more and less than 70%)
- Herbicidal effect on A: late watergrass (grade 0-5) [23]: 2 (Herbicidal rate of 20% or more and less than 40%)
- herbicidal effect rating, O: lambsquarters [24]: 0 (Herbicidal rate of 5% or less (almost no effect))
- herbicidal effect rating, P: chickweed [25]: 3 (Herbicidal rate of 40% or more and less than 70%)
- herbicidal effect grade, J: blackgrass [26]: 5 (Herbicidal rate of 90% or more (almost completely withered))
- herbicidal effect grade, M: velvetleaf [27]: 5 (Herbicidal rate of 90% or more (almost completely withered))
- herbicidal effect grade, G: green foxtail [28]: 5 (Herbicidal rate of 90% or more (almost completely withered))
- herbicidal effect rating, F: southern crabgrass [29]: 5 (Herbicidal rate of 90% or more (almost completely withered))
- herbicidal effect grade, R: persian speedwell [30]: 5 (Herbicidal rate of 90% or more (almost completely withered))
- herbicidal effect grade, O: lambsquarters [31]: 3 (Herbicidal rate of 40% or more and less than 70%)
- herbicidal effect grade, L: windgrass [32]: 5 (Herbicidal rate of 90% or more (almost completely withered))
